Laboratory results as given in US9493474B2, “Inhibitors of the renal outer medullary potassium channel” (Merck Sharp & Dohme Corp., priority 2011, dated 2016).

Columns and labels:
hROMK (hKir1.1) = hROMK (hKir1.1) (Homo sapiens (Human), UniProt P48048); assay: Thallium Flux Assay; assay type: cell-based; conditions: HEK293 cells stably expressing hROMK (hKir1.1); FLIPR-Tetra, 30 min compound incubation
From the text: (§1) Several assays may be used to measure functional inhibition of the ROMK channel by compounds of the instant invention. One assay that can be used is an electrophysiology assay that measures the electrical current that is generated as potassium permeates through the channel. Another ROMK functional assay makes use of the ability of thallium to permeate through open ROMK channels and increase the fluorescence of a dye previously loaded into the cells. Under control conditions, cells loaded with dye and exposed to thallium-containing medium display a time-dependent increase in fluorescence, the rate of which depends on number of functional channels. When cells are incubated in the presence of a channel inhibitor, the increase in fluorescence is attenuated in a concentration-dependent manner, and IC50 values of inhibition by compounds can be accurately determined. This assay has been established with cell lines expressing either human, or rat ROMK channels, and operates in 384-well format.
HEK293 cells stably expressing hROMK (hKir1.1) were grown at 37° C. in a 10% CO2 humidified incubator in complete growth media: Dulbecco's Modified Eagle Medium supplemented with non-essential amino acids, Penicillin/Streptomycin/Glutamine, G418 and FBS. At >80% confluency, the media was aspirated from the flask and the sample was rinsed with 10 ml Calcium/Magnesium-free PBS. […] To dislodge the cell, the side of the flask was gently banged with a hand. The cells were triturated completely and then transferred to 25 ml complete media. The sample was then centrifuged at 1,500 rpm for 6 minutes, followed by resuspension in complete growth media and then cell concentration was determined. […] Under ideal growth conditions and appropriate tissue culture practices, this cell line is stable for 40-45 passages.
• FluxOR™ Reagent (Component A) • FluxOR™ Assay Buffer (Component B)—10× Concentrate • PowerLoad™ Concentrate (Component C)—100× Concentrate • Probenecid (Component D)—Lyophilized sample is kept at −20° C. Water soluble, 100× after solubilization in 1 ml water. […] Store at 4° C. • Thallium sulfate (Tl2SO4) Concentrate (Component G)—50 mM in water. […] Can be stored at room temperature • Stimulant Buffer (prepared at 5× final concentration in 1× FluxOR™ Chloride-Free Buffer): 7.5 mM Thallium sulfate and 0.75 mM Potassium sulfate (to give a final assay concentration of 3 mM Thallium/0.3 mM Potassium). Store at 4° C. when not in use. If kept sterile, this solution is good for months. Assay Protocol—
The ROMK channel functional thallium flux assay is performed in 384 wells, using the FLIPR-Tetra instrument. HEK-hKir1.1 cells are seeded in Poly-D-Lysine microplates and kept in a 37° C.-10% CO2 incubator overnight. On the day of the experiment, the growth media is replaced with the FluxOR™ reagent loading buffer and incubated, protected from light, at ambient temperature (23-25° C.) for 90 min. The loading buffer is replaced with assay buffer±test compound followed by 30 min incubation at ambient temperature, where the Thallium/Potassium stimulant is added to the microplate.
• 1. Seed HEK-hKir1.1 cells (50 μl at 20,000 cells/well) in 384-well PDL coated Microplates • 2. Allow cells to adhere overnight in humidified 37° C./10% CO2 incubator • 3. Completely remove cell growth media from microplate and replace with 25 μl loading buffer • 4. Incubate Microplate at room temperature, protected form light, for 90 min • 5. Remove loading buffer and replace with 25 μl 1× Assay Buffer±test compound. • 6. Incubate microplate at room temperature, protected form light, for 30 min • 7. […] Excitation=400 nm, Emission=460 & 580 nm. Collect data for 10 min. Data Calculation—
The fluorescence intensity of wells containing 3 μM of a standard control ROMK inhibitor of the present invention is used to define the ROMK-sensitive component of thallium flux. Fluorescence in the presence of test compounds is normalized to control values to provide % fluorescence change.

Kir1.1 (ROMK1) = Kir1.1 (ROMK1) (Homo sapiens (Human), UniProt P48048); assay: Electrophysiology Assay (whole cell voltage clamp, IonWorks Quattro); assay type: cell-based; conditions: Chinese hamster ovary cells stably expressing Kir1.1; block at voltage step to 0 mV, 6 minutes compound incubation; read-out: EP Assay IC50
From the text: as §1
Block of Kir1.1 (ROMK1) currents was examined by whole cell voltage clamp (Hamill et. al. Pfluegers Archives 391:85-100 (1981)) using the IonWorks® Quattro automated electrophysiology platform (Molecular Devices, Sunnyvale, Calif.). Chinese hamster ovary cells stably expressing Kir1.1 channels were maintained in T-75 flasks in cell culture media in a humidified 10% CO2 incubator at 37° C. Prior to an experiment, Kir1.1 expression was induced by overnight incubation with 1 mM sodium butyrate. On the day of the experiment, cells were dissociated with 2.5 ml of Versene™ (Invitrogen 15040-066) for approximately 6 minutes at 37° C. and suspended in 10 ml of bath solution containing (in mM): 150 NaCl, 10 KCl, 2.7 CaCl2, 0.5 MgCl2, 5 HEPES, pH 7.4. After centrifugation, the cell pellet was resuspended in approximately 4.0 ml of bath solution and placed in the IonWorks® instrument. The intracellular solution consisted of (in mM): 80 K gluconate, 40 KCl, 20 KF, 3.2 MgCl2, 3 EGTA, 5 Hepes, pH 7.4. Electrical access to the cytoplasm was achieved by perforation in 0.13 mg/ml amphotericin B for 4 minutes. Amphotericin B (Sigma A-4888) was prepared as a 40 mg/ml solution in DMSO.
Voltage protocols and current recordings were performed using the IonWorks® HT software/hardware system. Currents were sampled at 1 kHz. No correction for liquid junction potentials was used. The test pulse, consisting of a 100 ms step to 0 mV from a holding potential of −70 mV, followed by a 100 ms voltage ramp from −70 mV to +70 mV, was applied before and after a 6 minutes compound incubation period. Test compounds were prepared by diluting DMSO stock solutions into the bath solution at 3× the final concentration and placed in the instrument in 96-well polypropylene plates. Current amplitudes were measured using the IonWorks® software. To assess compound potency, the fractional block during the voltage step to 0 mV was calculated in Microsoft® Excel (Microsoft, Redmond, Calif.), and dose-response curves were fitted with Igor Pro 4.0 (WaveMetrics, Lake Oswego, Oreg.).

Chain of Kir1.1 (ROMK1) (P48048 whole entry, species assumed): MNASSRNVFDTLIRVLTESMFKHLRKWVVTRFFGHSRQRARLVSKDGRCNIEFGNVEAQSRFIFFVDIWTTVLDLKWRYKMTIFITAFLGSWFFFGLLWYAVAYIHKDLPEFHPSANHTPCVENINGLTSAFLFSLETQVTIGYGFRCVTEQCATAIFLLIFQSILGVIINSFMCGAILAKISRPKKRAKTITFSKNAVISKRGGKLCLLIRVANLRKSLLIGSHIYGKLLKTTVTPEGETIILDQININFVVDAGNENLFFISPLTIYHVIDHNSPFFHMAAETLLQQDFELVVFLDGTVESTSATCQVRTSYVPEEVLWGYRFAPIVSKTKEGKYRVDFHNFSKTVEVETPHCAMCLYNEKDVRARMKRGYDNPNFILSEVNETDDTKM
Chain of hROMK (hKir1.1) (P48048 whole entry): as the sequence (P48048 whole entry, species assumed) above

**Q.** How did the IC50 (hROMK (hKir1.1)) turn out when `Cc1c([C@@H](O)CN2CCC3CN(CC(O)c4ccc(C#N)cn4)CC32)ccc2c1COC2=O` (single isomer, unassigned) [Example 7A] was run?
**A.** Its IC50 is 152 nM.

**Q.** What about the IC50 (Kir1.1 (ROMK1)) of the same compound?
**A.** The IC50 was 47 nM.

**Q.** For `Cc1c([C@@H](O)CN2CCC3CN(CC(O)c4ccc(C#N)cn4)CC32)ccc2c1COC2=O` (single isomer, unassigned) [Example 7B], which IC50 (hROMK (hKir1.1)) is on record?
**A.** Its IC50 is 566 nM.

**Q.** And the IC50 (Kir1.1 (ROMK1))?
**A.** Its IC50 is 2400 nM.

**Q.** For `Cc1c([C@@H](O)CN2CCC3CN(S(=O)(=O)c4ccc(C#N)cc4)CC32)ccc2c1COC2=O` (single isomer, unassigned) [Example 8B], which IC50 (hROMK (hKir1.1)) is on record?
**A.** The IC50 was 662 nM.

**Q.** For `Cc1c([C@@H](O)CN2CCC3(CCCN3C[C@H](O)c3ccc4c(c3C)COC4=O)C2)ccc2c1COC2=O` (single isomer, unassigned) [Example 10B], which IC50 (hROMK (hKir1.1)) is on record?
**A.** Its IC50 is 76 nM.

**Q.** What about the IC50 (Kir1.1 (ROMK1)) of the same compound?
**A.** Its IC50 is 184 nM.

**Q.** For `Cc1c([C@@H](O)CN2C(C)CC3CN(CC(O)c4ccc(C#N)cn4)CC32)ccc2c1COC2=O` (single isomer, unassigned) [Example 11A], which IC50 (hROMK (hKir1.1)) is on record?
**A.** The IC50 was 93 nM.

**Q.** For `Cc1c([C@@H](O)CN2C(C)CC3CN(CC(O)c4ccc(C#N)cn4)CC32)ccc2c1COC2=O` (single isomer, unassigned) [Example 11B], which IC50 (hROMK (hKir1.1)) is on record?
**A.** Its IC50 is 91 nM.

**Q.** And the IC50 (Kir1.1 (ROMK1))?
**A.** Its IC50 is 53 nM.

**Q.** Which results are given for `Cc1cc(S(=O)(=O)N2CCCC23CCN(C[C@H](O)c2ccc4c(c2C)COC4=O)C3)ccc1-n1cnnn1` (single isomer, unassigned) [Example 18A]?
**A.** IC50 (hROMK (hKir1.1)): 138 nM; IC50 (Kir1.1 (ROMK1)): 79 nM

**Q.** Which results are given for `Cc1cc(S(=O)(=O)N2CCCC23CCN(C[C@H](O)c2ccc4c(c2C)COC4=O)C3)ccc1-n1cnnn1` (single isomer, unassigned) [Example 18B]?
**A.** IC50 (hROMK (hKir1.1)): 294 nM; IC50 (Kir1.1 (ROMK1)): 125 nM

**Q.** `Cc1c([C@@H](O)CN2CC3CN(CC(O)c4ccc(C#N)cn4)C3C2)ccc2c1COC2=O` (single isomer, unassigned) [Example 22] was tested. Which IC50 (hROMK (hKir1.1)) did it give?
**A.** Its IC50 is 916 nM.

**Q.** Which IC50 (hROMK (hKir1.1)) does the source give for `Cc1c([C@@H](O)CN2CC3CN(CC(O)c4ccc(C#N)cn4)C3C2)ccc2c1COC2=O` (single isomer, unassigned) [Example 23] here?
**A.** The IC50 was 540 nM.

**Q.** And the IC50 (Kir1.1 (ROMK1))?
**A.** Its IC50 is 1800 nM.

**Q.** Which results are given for `Cc1c([C@@H](O)CN2CCCC3(CCN(C[C@H](O)c4ccc5c(c4C)COC5=O)C3)C2)ccc2c1COC2=O` (stereo partly drawn) [Example 1, 5,5′-{2,7-Diazaspiro[4.5]decane-2,7-diylbis[(1R)-1-hydroxyethane-2,1-diyl]}bis(4-methyl-2-benzofuran-1(3H)-one)]?
**A.** IC50 (hROMK (hKir1.1)): 274 nM; IC50 (Kir1.1 (ROMK1)): 117 nM

**Q.** With `Cc1c([C@@H](O)CN2CC3CCN(C(=O)c4ccc(C#N)cn4)CC3C2)ccc2c1COC2=O` (stereo partly drawn) [Example 3, 6-({2-[(2R)-2-Hydroxy-2-(4-methyl-1-oxo-1,3-dihydro-2-benzofuran-5-yl)ethyl]octahydro-5H-pyrrolo[3,4-c]pyridine-5-yl}carbonyl)pyridine-3-carbonitrile] as the compound, how does the IC50 (hROMK (hKir1.1)) read?
**A.** The IC50 was 865 nM.

**Q.** How did the IC50 (hROMK (hKir1.1)) turn out when `Cc1c([C@@H](O)CN2CCCC3(CCCN3C[C@H](O)c3ccc4c(c3C)COC4=O)C2)ccc2c1COC2=O` (stereo partly drawn) [Example 5, 5,5′-{1,7-Diazaspiro[4.5]decane-1,7-diylbis[(1R)-1-hydroxyethane-2,1-diyl]}bis(4-methyl-2-benzofuran-1(3H)-one)] was run?
**A.** Its IC50 is 737 nM.

**Q.** What about the IC50 (Kir1.1 (ROMK1)) of the same compound?
**A.** The IC50 was 348 nM.

**Q.** What does the source list for `Cc1c([C@@H](O)CN2CCCC3(CCCN(C[C@H](O)c4ccc5c(c4C)COC5=O)C3)C2)ccc2c1COC2=O` [Example 6, 5,5′-{2,8-Diazaspiro[5.5]undecane-2,8-diylbis[(1R)-1-hydroxyethane-2,1-diyl]}bis(4-methyl-2-benzofuran-1(3H)-one)]?
**A.** IC50 (hROMK (hKir1.1)): 359 nM; IC50 (Kir1.1 (ROMK1)): 201 nM

**Q.** For `N#Cc1ccc(S(=O)(=O)N2CCC3CN(C[C@H](O)c4ccc5c(c4)COC5=O)CC32)cc1` (stereo partly drawn) [Example 9, 4-(5-((R)-2-Hydroxy-2-(1-oxo-1,3-dihydroisobenzofuran-5-yl)ethyl)hexahydropyrrolo[3,4-b]pyrrol-1(2H)-ylsulfonyl)benzonitrile], which IC50 (hROMK (hKir1.1)) is on record?
**A.** Its IC50 is 234 nM.

**Q.** With `Cc1c([C@@H](O)CN2CCC3(CCCN(C(=O)c4ccc(-n5cnnn5)nc4)C3)C2)ccc2c1COC2=O` (stereo partly drawn) [Example 14, 5-((1R)-2-(7-(6-(1H-tetrazol-1-yl)nicotinoyl)-2,7-diazaspiro[4.5]decan-2-yl)-1-hydroxyethyl)-4-methylisobenzofuran-1(3H)-one] as the compound, how does the IC50 (hROMK (hKir1.1)) read?
**A.** The IC50 was 241 nM.

**Q.** What about the IC50 (Kir1.1 (ROMK1)) of the same compound?
**A.** The IC50 was 108 nM.

**Q.** How did the IC50 (hROMK (hKir1.1)) turn out when `Cc1c([C@@H](O)CN2CC3CCN(C(=O)c4ccc(-n5cnnn5)nc4)CC3C2)ccc2c1COC2=O` (stereo partly drawn) [Example 15, 5-((1R)-2-(5-(6-(1H-Tetrazol-1-yl)nicotinoyl)-1H-pyrrolo[3,4-c]_yridine-2(3H,3aH,4H,5H,6H,7H,7aH)-yl)-1-hydroxyethyl)-4-methylisobenzofuran-1(3H)-one] was run?
**A.** Its IC50 is 103 nM.

**Q.** And the IC50 (Kir1.1 (ROMK1))?
**A.** Its IC50 is 200 nM.

**Q.** What does the source list for `Cc1c([C@@H](O)CN2CCC3CN(C(=O)c4ccc(-n5cnnn5)cn4)CC32)ccc2c1COC2=O` (stereo partly drawn) [Example 16, 5-((1R)-2-(5-(5-(1H-tetrazol-1-yl)picolinoyl)hexahydropyrrolo[3,4-b]pyrrol-1(2H)-yl)-1-hydroxyethyl)-4-methylisobenzofuran-1(3H)-one]?
**A.** IC50 (hROMK (hKir1.1)): 602 nM; IC50 (Kir1.1 (ROMK1)): 850 nM

**Q.** For `Cc1c([C@@H](O)CN2CCC3CN(S(=O)(=O)c4ccc(-n5cnnn5)cc4)CC32)ccc2c1COC2=O` (stereo partly drawn) [Example 20, 5-((1R)-2-(5-(4-(1H-Tetrazol-1-yl)phenylsulfonyl)hexahydropyrrolo[3,4-b]pyrrol-1(2H)-yl)-1-hydroxyethyl)-4-methylisobenzofuran-1(3H)-one], which IC50 (hROMK (hKir1.1)) is on record?
**A.** The IC50 was 1050 nM.
